Measured values from US5252478A, “Thermostable mutants of neutral protease and means for their preparation” (Eniricerche S.p.A., priority 1990, dated 1993).
Residues, ends and D or L forms follow the SMILES beside them. *: point of attachment. Cbz = O=C(OCc1ccccc1)*

What was measured:
Assay in all cases: Kinetic parameters on synthetic peptide substrates (HPLC of hydrolysis products)
Assay type in all cases: biochemical
[1] = target: T1, B.subtilis neutral protease mutant 189 (Gly 189 → Ala) (Bacillus subtilis, UniProt P68736, G406A); conditions: 189 mutant; 37° C., 25 mM Tris-HCl, pH 7.0, 2.5 mM calcium acetate
T1 construct: made in house; host or cells: B. subtilis SMS 108 carrying pSM 375 (printed pSM 75; B. subtilis SMS 261)
Method: (§1) The kinetic parameters Km and Kcat of wild-type neutral protease and of the three mutants were determined on Z-Phe-Leu-Ala, Z-Ala-Leu-Ala, Z-Gly-Leu-Ala and Z-Val-Leu-Ala synthetic peptide substrates (Bachem, Bubendorf, CH).
(§2) The hydrolysis reactions were carried out at 37° C. in 0.6 ml of a solution containing 25 mM Tris-HCl, pH 7.0, and 2.5 mM calcium acetate, with the use of different concentrations of the substrate (from 0.2 to 20.0 mM) and of the enzyme (from 0.04 to 5 ug/ml).
(§3) 100 μl portions were withdrawn from the reaction mixtures at various time intervals, and 100 μl of a solution of H2 O:CH3 CN:H3 PO4 in a volumetric ratio of 64:34:1 were added and the mixture centrifuged at 14,000 rpm for 5 minutes.
(§4) 20 μl of the supernatant liquid thus obtained were then loaded into a VYDAC® 218 TP S415 HPLC column (4.6×150 mm, 10 μm particles) and the hydrolysis products (Z-Phe, Z-Ala, Z-Val and Z-Gly) were separated by isocratic elution at a flow rate of 1.5 ml/minute with the use of solutions A (0.05% H3 PO4, v/v) and B (H2 O:CH3 CN:H3 PO4, 4.95:95.0:0.05 v/v) in ratios which varied according to the substrate used.
(§5) The reaction products were measured as their absorbance at 220 nm and quantised by the integration of the elution peaks with the use of the System Gold program (Beckman).
(§6) Initial velocities (vi) and maximum velocities (Vmax) Km and Kcat were then found for each of the substrates with the use of the Michaelis-Manten equation [formula]

[2] = target: T2, B.subtilis neutral protease mutant 147 (Gly 147 → Ala) (Bacillus subtilis, UniProt P68736, G369A); conditions: 147 mutant; 37° C., 25 mM Tris-HCl, pH 7.0, 2.5 mM calcium acetate
T2 construct: made in house; host or cells: B. subtilis SMS 108 carrying pSM 374 (B. subtilis SMS 263)
Method: as §1, §2, §3, §4, §5, §6

[3] = target: T3, B.subtilis neutral protease double mutant 147/189 (Gly 147 → Ala, Gly 189 → Ala) (Bacillus subtilis, UniProt P68736, G369A/G406A); conditions: 147/189 mutant; 37° C., 25 mM Tris-HCl, pH 7.0, 2.5 mM calcium acetate
T3 construct: made in house; host or cells: B. subtilis SMS 108 carrying pSM 376 (B. subtilis SMS 262)
Method: as §1, §2, §3, §4, §5, §6

[4] = target: T4, B.subtilis neutral protease, wild type (PN w.t.) (Bacillus subtilis, UniProt P68736); set-up: unit not given beside the values; conditions: 37° C., 25 mM Tris-HCl, pH 7.0, 2.5 mM calcium acetate
T4 construct: made in house; host or cells: B. subtilis SMS 108 carrying pSM 127 (NRRL B-15900)
T4 sequence (P68736 222-521): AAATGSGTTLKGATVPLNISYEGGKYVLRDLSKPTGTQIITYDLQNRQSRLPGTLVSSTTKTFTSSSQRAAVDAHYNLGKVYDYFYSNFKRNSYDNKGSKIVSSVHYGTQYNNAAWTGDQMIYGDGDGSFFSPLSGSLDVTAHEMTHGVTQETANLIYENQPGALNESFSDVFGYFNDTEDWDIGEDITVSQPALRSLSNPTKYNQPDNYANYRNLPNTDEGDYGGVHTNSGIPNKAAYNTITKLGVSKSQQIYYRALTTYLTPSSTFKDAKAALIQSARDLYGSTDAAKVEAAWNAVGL
Method: as §1, §2, §3, §4, §5, §6

T3 sequence (P68736 222-521 G369A/G406A): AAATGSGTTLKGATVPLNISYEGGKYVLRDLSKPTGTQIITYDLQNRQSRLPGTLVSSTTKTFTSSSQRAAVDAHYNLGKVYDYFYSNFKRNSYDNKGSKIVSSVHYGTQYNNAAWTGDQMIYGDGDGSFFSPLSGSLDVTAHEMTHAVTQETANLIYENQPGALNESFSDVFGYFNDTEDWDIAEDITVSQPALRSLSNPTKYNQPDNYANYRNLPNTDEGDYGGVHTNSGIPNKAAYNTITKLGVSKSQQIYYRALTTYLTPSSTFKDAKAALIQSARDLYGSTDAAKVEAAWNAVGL
T1 sequence (P68736 222-521 G406A): as the sequence (P68736 222-521 G369A/G406A) above, with A148G counted along it
T2 sequence (P68736 222-521 G369A): as the sequence (P68736 222-521 G369A/G406A) above, with A185G counted along it

## CC(C)C[C@H](NC(=O)[C@H](C)NC(=O)OCc1ccccc1)C(=O)N[C@@H](C)C(=O)O [Z--Ala--Leu--Ala, Z-Ala-Leu-Ala] (Cbz-Ala-Leu-Ala-OH)
[1]
  Kcat: 2694
  Km: 1.53 mM
[2]
  Kcat: ~3500
[3]
  Kcat: 1329
  Km: 8.72 mM
[4]
  Kcat: 3005

## CC(C)C[C@H](NC(=O)CNC(=O)OCc1ccccc1)C(=O)N[C@@H](C)C(=O)O [Z--Gly--Leu--Ala, Z-Gly-Leu-Ala] (Cbz-Gly-Leu-Ala-OH)
[1]
  Kcat: 1847
  Km: 2.38 mM
[2]
  Kcat: 105.8
  Km: 35.3 mM
[3]
  Kcat: 186.4
  Km: 4.39 mM
[4]
  Kcat: 1150

## CC(C)C[C@H](NC(=O)[C@H](Cc1ccccc1)NC(=O)OCc1ccccc1)C(=O)N[C@@H](C)C(=O)O [Z--Phe--Leu--Ala, Z-Phe-Leu-Ala] (Cbz-Phe-Leu-Ala-OH)
[1]
  Kcat: 2139
  Km: 2.53 mM
[2]
  Kcat: 1933
  Km: 9.36 mM
[3]
  Kcat: 1038
  Km: 0.95 mM
[4]
  Kcat: 1986

## CC(C)C[C@H](NC(=O)[C@@H](NC(=O)OCc1ccccc1)C(C)C)C(=O)N[C@@H](C)C(=O)O [Z--Val--Leu--Ala, Z-Val-Leu-Ala] (Cbz-Val-Leu-Ala-OH)
[1]
  Kcat: 13.12
  Km: 0.96 mM
[2]
  Kcat: 3.76
  Km: 24 mM
[3]
  Kcat: 7.61
  Km: 6.97 mM
[4]
  Kcat: 6.12
